Source: ChEMBL document CHEMBL3124873, “cis-1-Oxo-heterocyclyl-4-amido cyclohexane derivatives as NPY5 receptor antagonists” (Bioorg Med Chem Lett, 2014)
In brackets after ≈: the same amount, converted by molar mass.

Tests used:
Liver microsome [1] = test: Intrinsic clearance in human pooled liver microsomes at 1 uM by LC/MS analysis; assay type: ADME
[2] = biological target: T1, Neuropeptide Y receptor type 5 (Homo sapiens, UniProt Q15761); test: Displacement of [125I]PYY from human NPY5 receptor transfected in LM(tk-) cell membranes after 120 mins by solid scintillation counting
T1 sequence (Q15761 whole entry): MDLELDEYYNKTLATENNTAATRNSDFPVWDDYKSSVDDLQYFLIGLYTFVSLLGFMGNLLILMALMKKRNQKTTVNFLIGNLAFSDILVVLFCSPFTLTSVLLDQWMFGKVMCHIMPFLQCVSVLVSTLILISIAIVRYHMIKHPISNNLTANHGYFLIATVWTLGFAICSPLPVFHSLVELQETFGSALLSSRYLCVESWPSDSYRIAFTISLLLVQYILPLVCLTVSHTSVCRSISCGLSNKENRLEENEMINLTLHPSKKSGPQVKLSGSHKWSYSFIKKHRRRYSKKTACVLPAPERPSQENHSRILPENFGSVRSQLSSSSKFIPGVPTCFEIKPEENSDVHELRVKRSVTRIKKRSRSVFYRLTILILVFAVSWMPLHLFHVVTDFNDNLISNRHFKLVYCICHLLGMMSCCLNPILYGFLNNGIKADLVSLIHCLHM

Liver microsome [3] = test: Intrinsic clearance in rat pooled liver microsomes at 1 uM by LC/MS analysis; assay type: ADME
Rattus norvegicus = test: AUC (0 to infinity) in Sprague-Dawley rat at 2 mg/kg, po by LC/MS analysis; assay type: ADME, organism-based, Plasma; design: time infinity, dose 2 mg/kg, route oral; details: in vivo
[4] = Ratio of drug level in brain to plasma in femoral artery cannulated Sprague-Dawley rat at 10 mg/kg, po after 1 hr by LC/MS/MS analysis; assay type: ADME, organism-based; design: dose 10 mg/kg, route oral; details: read-out: BPR
[5] = Clearance in Sprague-Dawley rat at 1 mg/kg, iv and 2 mg/kg, po by LC/MS analysis; assay type: ADME, organism-based; details: in vivo
[6] = Half life in Sprague-Dawley rat at 1 mg/kg, iv and 2 mg/kg, po by LC/MS analysis; assay type: ADME, organism-based; details: in vivo
[7] = Oral bioavailability in Sprague-Dawley rat at 2 mg/kg by LC/MS analysis; assay type: ADME, organism-based; details: in vivo
[8] = Drug uptake in femoral artery cannulated Sprague-Dawley rat brain at 10 mg/kg, po after 1 hr by LC/MS/MS analysis; assay type: ADME, organism-based; design: dose 10 mg/kg, route oral; details: read-out: Drug uptake
[9] = Volume of distribution at steady state in Sprague-Dawley rat at 1 mg/kg, iv and 2 mg/kg, po by LC/MS analysis; assay type: ADME, organism-based; details: in vivo, read-out: Vdss
[10] = Plasma concentration in femoral artery cannulated Sprague-Dawley rat at 10 mg/kg, po after 1 hr by LC/MS/MS analysis; assay type: ADME, organism-based; design: dose 10 mg/kg, route oral
[11] = Solubility of the compound at pH 7.4 by classic shake flask method; assay type: physicochemical; details: buffer

SMILES | CLH (Liver microsome [1]) | Ki [2] | CLH (Liver microsome [3]) | AUC (Rattus norvegicus) | Kp at 1 h [4] | clearance [5] | half-life [6] | bioavailability [7] | concentration at 1 h [8] | Vd [9] | concentration at 1 h [10] | solubility thermodynamic [11]
C[C@H]1CN([C@H]2CC[C@@H](C(=O)Nc3ccc(-c4cc(F)cc(F)c4)cn3)CC2)C(=O)O1 | 1.1 L/min | 7 nM | 15 mL/min |  |  |  |  |  |  |  |  | 
O=C1CCCN1[C@H]1CC[C@@H](C(=O)Nc2ccc(-c3cc(F)cc(F)c3)cn2)CC1 | 1 L/min | 8 nM | 12 mL/min | 4300 ng·h/mL | 1 | 8.67 mL/min/kg | 4.4 h | 110% | 2800 nM | 3.2 L/kg | 2800 nM | 0.7 µg/mL (≈ 1.75 µM)
O=C1N(C2CC2)CCN1[C@H]1CC[C@@H](C(=O)Nc2ccc(-c3cc(F)cc(F)c3)cn2)CC1 | 1 L/min | 9 nM | 8.4 mL/min |  |  |  |  |  |  |  |  | 
O=C1CCCCN1[C@H]1CC[C@@H](C(=O)Nc2ccc(-c3cc(F)cc(F)c3)cn2)CC1 |  | 2 nM |  |  |  |  |  |  |  |  |  | 
CCN1CCN([C@H]2CC[C@@H](C(=O)Nc3ccc(-c4cc(F)cc(F)c4)cn3)CC2)C1=O | 1.6 L/min | 10 nM | 17 mL/min |  |  |  |  |  |  |  |  | 1.6 µg/mL (≈ 3.73 µM)
CC(C)(C)C1CN([C@H]2CC[C@@H](C(=O)Nc3ccc(-c4cc(F)cc(F)c4)cn3)CC2)C(=O)O1 (mixture of isomers) | 3.9 L/min | 4 nM | 25 mL/min |  |  |  |  |  |  |  |  | 
O=C1CCCN1[C@H]1CC[C@@H](C(=O)Nc2cnc(-c3cc(F)cc(F)c3)cn2)CC1 | 0.9 L/min | 6 nM | 9.5 mL/min |  |  |  |  |  |  |  |  | 
O=C1OCCN1[C@H]1CC[C@@H](C(=O)Nc2ccc(-c3cc(F)cc(F)c3)cn2)CC1 | 0.4 L/min |  | 9.5 mL/min | 2000 ng·h/mL | 0.5 | 14.2 mL/min/kg | 2.8 h | 83% | 1500 nM | 3.4 L/kg | 3000 nM | 4 µg/mL (≈ 9.96 µM)
CN(c1ccc(-c2cc(F)cc(F)c2)cn1)C(=O)[C@H]1CC[C@@H](N2CCCC2=O)CC1 |  | > 10000 nM |  |  |  |  |  |  |  |  |  | 
CC(C)N1CCN([C@H]2CC[C@@H](C(=O)Nc3ccc(-c4cc(F)cc(F)c4)cn3)CC2)C1=O |  | 41 nM |  |  |  |  |  |  |  |  |  | 
O=C1CCCN1[C@H]1CC[C@@H](C(=O)Nc2ncc(-c3cc(F)cc(F)c3)cn2)CC1 | 0.7 L/min | 5 nM | 31 mL/min |  | 0.14 |  |  |  | 380 nM |  | 2800 nM | 38 µg/mL (≈ 94.9 µM)
O=C1NCCCN1[C@H]1CC[C@@H](C(=O)Nc2ccc(-c3cc(F)cc(F)c3)cn2)CC1 | 1.1 L/min |  | 18 mL/min |  |  |  |  |  |  |  |  | 1.3 µg/mL (≈ 3.14 µM)
CN1CCN([C@H]2CC[C@@H](C(=O)Nc3ccc(-c4cc(F)cc(F)c4)cn3)CC2)C1=O | 0.8 L/min | 5 nM | 8.8 mL/min | 4100 ng·h/mL | 0.6 | 9.5 mL/min/kg | 3.5 h | 110% | 3100 nM | 2.8 L/kg | 5000 nM | 1.1 µg/mL (≈ 2.65 µM)
O=C1NCCN1[C@H]1CC[C@@H](C(=O)Nc2ccc(-c3cc(F)cc(F)c3)cn2)CC1 | 1.7 L/min | 5 nM | 37 mL/min |  | 0.2 |  |  |  | 1400 nM |  | 6800 nM | 4.5 µg/mL (≈ 11.2 µM)
CN1CCCN([C@H]2CC[C@@H](C(=O)Nc3ccc(-c4cc(F)cc(F)c4)cn3)CC2)C1=O | 1.1 L/min |  | 19 mL/min |  |  |  |  |  |  |  |  | 5.4 µg/mL (≈ 12.6 µM)
C[C@@H]1CN([C@H]2CC[C@@H](C(=O)Nc3ccc(-c4cc(F)cc(F)c4)cn3)CC2)C(=O)O1 | 0.9 L/min | 3 nM | 7 mL/min |  |  |  |  |  |  |  |  | 
